In patent publication US7323469B2, “7H-pyrrolo[2,3-d]pyrimidine derivatives” (Novartis AG, priority 2001, dated 2008):

Experiments:
[1] = target: T1, EGF-R (HER-1) (Homo sapiens, UniProt P00533); experiment: Inhibition of EGF-R tyrosine kinase activity (recombinant intracellular domain, EGF-R ICD); type: biochemical
T1 construct: using the recombinant intracellular domain of the EGF-receptor [EGF-R ICD
Method: J. Biochem. 207, 265-275 (1992)].
(§1) Inhibition of the Tyrosine Kinase Activity of EGF-R (HER-1), ErbB-2 (HER-2) and VEGF Receptor (KDR)
(§2) The inhibition tests are carried out as described above.

[2] = target: ErbB-2 (HER-2) (Homo sapiens, UniProt P04626); experiment: Inhibition of ErbB-2 tyrosine kinase activity; type: biochemical
Method: The inhibitory activity (IC50) is approximately in the range of 0.001 to 0.5 μM. The inhibition of ErbB-2 tyrosine kinase (HER-2) can be determined, for example, analogously to the method used for EGF-R protein tyrosine kinase [see C. House et al., Europ. J. Biochem. 140, 363-367 (1984)]. The ErbB-2 kinase can be isolated, and its activity determined, by means of protocols known per se, for example in accordance with T. Akiyama et al., Science 232, 1644 (1986).
as §1, §2

[3] = target: VEGF Receptor (KDR) (Homo sapiens, UniProt P35968); experiment: Inhibition of KDR tyrosine kinase activity; type: biochemical
Method: The compounds of the present invention are therefore very effective dual inhibitors of EGF- and VEGF-receptor family members. For inhibition of KDR and Flt-1 and inhibition of growth factor-induced proliferation of HUVECS see J. Wood et al., Cancer Res. 60, 2178-2189 (2000). The compounds of formula I inhibit e.g. the KDR tyrosine kinase activity with an IC50 of from about 1 nM to about 1 μM, especially from about 5 nM to about 0.5 μM.
as §1, §2

Chain of ErbB-2 (HER-2) (P04626 23-1255): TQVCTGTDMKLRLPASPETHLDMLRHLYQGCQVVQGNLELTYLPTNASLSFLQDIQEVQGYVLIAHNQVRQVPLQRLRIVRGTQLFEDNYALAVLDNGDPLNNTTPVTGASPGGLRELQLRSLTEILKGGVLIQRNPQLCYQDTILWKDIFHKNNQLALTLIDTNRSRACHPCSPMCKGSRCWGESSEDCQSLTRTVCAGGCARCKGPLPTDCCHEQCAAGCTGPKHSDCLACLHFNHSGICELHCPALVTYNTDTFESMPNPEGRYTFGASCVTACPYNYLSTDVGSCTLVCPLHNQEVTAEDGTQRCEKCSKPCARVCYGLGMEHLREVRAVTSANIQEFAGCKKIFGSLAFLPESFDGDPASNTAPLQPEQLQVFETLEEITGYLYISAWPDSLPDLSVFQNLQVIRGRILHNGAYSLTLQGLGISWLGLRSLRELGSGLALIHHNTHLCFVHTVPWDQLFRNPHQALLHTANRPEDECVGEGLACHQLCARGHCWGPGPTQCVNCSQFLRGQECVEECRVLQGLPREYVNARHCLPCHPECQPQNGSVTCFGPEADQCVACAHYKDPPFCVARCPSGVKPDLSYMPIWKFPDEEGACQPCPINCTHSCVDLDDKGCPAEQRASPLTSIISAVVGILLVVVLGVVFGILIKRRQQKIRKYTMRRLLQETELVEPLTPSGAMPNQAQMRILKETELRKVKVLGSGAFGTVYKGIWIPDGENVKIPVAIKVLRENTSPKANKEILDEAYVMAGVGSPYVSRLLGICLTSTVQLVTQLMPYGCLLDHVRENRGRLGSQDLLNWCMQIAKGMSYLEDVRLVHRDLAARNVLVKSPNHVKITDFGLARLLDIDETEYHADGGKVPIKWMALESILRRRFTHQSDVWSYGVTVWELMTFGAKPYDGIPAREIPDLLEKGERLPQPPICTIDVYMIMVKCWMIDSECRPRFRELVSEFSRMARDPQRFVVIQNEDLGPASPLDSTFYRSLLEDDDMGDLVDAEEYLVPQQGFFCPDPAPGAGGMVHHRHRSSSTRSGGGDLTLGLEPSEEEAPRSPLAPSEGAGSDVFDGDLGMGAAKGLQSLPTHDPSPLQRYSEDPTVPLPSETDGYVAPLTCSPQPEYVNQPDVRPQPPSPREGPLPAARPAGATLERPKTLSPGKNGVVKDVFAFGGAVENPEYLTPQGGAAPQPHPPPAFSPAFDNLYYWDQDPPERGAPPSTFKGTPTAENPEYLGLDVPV
T1 sequence (P00533 669-1210 limits assumed): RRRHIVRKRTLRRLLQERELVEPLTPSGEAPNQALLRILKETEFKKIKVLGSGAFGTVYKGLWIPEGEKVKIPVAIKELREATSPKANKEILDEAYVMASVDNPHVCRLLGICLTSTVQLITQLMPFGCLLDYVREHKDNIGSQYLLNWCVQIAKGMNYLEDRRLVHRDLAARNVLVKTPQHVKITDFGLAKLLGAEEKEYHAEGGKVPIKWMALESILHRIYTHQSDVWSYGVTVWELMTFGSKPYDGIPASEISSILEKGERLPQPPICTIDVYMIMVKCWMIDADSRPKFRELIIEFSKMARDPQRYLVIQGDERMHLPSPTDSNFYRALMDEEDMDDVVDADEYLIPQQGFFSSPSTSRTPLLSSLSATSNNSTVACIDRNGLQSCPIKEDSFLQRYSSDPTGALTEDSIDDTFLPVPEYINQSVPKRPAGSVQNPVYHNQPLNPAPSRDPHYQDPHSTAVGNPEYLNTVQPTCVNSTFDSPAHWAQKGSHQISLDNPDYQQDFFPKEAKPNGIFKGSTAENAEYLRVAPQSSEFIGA
Chain of VEGF Receptor (KDR) (P35968 20-1356): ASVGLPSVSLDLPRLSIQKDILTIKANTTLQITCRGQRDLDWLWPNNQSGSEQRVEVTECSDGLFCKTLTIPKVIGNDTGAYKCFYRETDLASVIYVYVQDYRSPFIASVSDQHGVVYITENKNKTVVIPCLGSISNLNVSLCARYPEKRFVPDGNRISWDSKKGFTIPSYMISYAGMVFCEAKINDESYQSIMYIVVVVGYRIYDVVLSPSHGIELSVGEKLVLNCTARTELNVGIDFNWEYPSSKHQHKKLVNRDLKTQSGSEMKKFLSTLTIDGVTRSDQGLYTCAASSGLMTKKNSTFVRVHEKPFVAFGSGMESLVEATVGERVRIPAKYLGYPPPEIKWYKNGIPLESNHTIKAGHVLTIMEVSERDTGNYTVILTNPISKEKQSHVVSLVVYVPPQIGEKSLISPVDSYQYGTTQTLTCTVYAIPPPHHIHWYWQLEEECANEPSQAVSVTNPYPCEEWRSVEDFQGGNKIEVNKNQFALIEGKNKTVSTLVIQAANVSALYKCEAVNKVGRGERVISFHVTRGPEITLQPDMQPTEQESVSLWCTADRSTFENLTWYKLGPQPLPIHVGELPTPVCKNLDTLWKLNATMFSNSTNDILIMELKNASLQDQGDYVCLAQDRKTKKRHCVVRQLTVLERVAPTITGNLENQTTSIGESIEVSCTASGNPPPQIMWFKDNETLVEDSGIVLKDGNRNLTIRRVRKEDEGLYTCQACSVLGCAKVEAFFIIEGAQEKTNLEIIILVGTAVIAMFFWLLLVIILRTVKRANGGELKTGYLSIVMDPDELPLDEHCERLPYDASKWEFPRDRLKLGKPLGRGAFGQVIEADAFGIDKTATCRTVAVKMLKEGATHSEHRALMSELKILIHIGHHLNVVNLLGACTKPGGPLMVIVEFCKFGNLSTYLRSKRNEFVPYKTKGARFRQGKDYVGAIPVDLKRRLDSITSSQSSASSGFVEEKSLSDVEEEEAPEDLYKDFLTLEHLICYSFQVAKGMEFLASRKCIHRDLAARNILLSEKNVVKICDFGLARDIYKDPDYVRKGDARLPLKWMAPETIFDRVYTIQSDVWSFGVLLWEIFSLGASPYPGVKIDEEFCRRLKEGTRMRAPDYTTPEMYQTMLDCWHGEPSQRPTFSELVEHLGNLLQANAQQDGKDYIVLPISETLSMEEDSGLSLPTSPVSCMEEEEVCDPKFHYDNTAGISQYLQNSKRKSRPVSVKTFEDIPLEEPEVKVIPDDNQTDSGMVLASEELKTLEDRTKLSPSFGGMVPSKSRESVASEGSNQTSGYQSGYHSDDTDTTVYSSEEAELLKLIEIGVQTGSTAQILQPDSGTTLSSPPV

Row | SMILES | IC50 [1] [nM] | IC50 [2] [nM] | IC50 [3] [nM] | melting point [°C]
1 | CN1CCN(Cc2ccc(-c3cc4c(Nc5ccc(OCc6ccccc6)cc5)ncnc4[nH]3)cc2)CC1 [Example 18, (4-Benzyloxy-phenyl)-{6-[4-(4-methyl-piperazin-1-ylmethyl)-phenyl]-7H-pyrrolo[2,3-d]pyrimidin-4-yl}-amine] | 16.5 | 31.5 | 24.5 | 256 to 258
2 | C[C@@H](Nc1ncnc2[nH]c(-c3ccc(CNCCN4CCOCC4)cc3)cc12)c1ccccc1 [Example 16a, (6-{4-[(2-Morpholin-4-yl-ethylamino)-methyl]-phenyl}-7H-pyrrolo[2,3-d]pyrimidin-4-yl)-((R)-1-phenyl-ethyl)-amine] | 1.2 | 16 | 61 | 222 to 224
3 | CN1CCN(Cc2ccc(-c3cc4c(NCc5ccccc5Cl)ncnc4[nH]3)cc2)CC1 [Example 94, (2-Chloro-benzyl)-{6-[4-(4-methyl-piperazin-1-ylmethyl)-phenyl]-7H-pyrrolo[2,3-d]pyrimidin-4-yl}-amine] | 1.8 | 16 | 42 | 267 to 269
4 | C[C@@H](Nc1ncnc2[nH]c(-c3ccc(CN4CCCC4)cc3)cc12)c1ccccc1 [Example 12, ((R)-1-Phenyl-ethyl)-[6-(4-pyrrolidin-1-ylmethyl-phenyl)-7H-pyrrolo[2,3-d]pyrimidin-4-yl]-amine] | 4.7 | 5 | 139 | 254 to 256
5 | C[C@@H](Nc1ncnc2[nH]c(-c3ccc(CNC(=O)CN4CCN(C)CC4)cc3)cc12)c1ccccc1 [Example 43, 2-(4-Methyl-piperazin-1-yl)-N-{4-[4-((R)-1-phenyl-ethylamino)-7H-pyrrolo[2,3-d]pyrimidin-6-yl]-benzyl}-acetamide] | 5 | 11.5 | 51.5 | 150 to 152
6 | Fc1ccc(Nc2ncnc3[nH]c(-c4ccc(CNC5CCOCC5)cc4)cc23)cc1Cl [Example 8a, (3-Chloro-4-fluoro-phenyl)-(6-{4-[(tetrahydro-pyran-4-ylamino)-methyl]-phenyl}-7H-pyrrolo[2,3-d]pyrimidin-4-yl)-amine] | 2.4 | 9.4 | 17 | 288 to 290
7 | Clc1cccc(CNc2ncnc3[nH]c(-c4ccc(CN5CCOCC5)cc4)cc23)c1 [Example 86, (3-Chloro-benzyl)-[6-(4-morpholin-4-ylmethyl-phenyl)-7H-pyrrolo[2,3-d]pyrimidin-4-yl]-amine] | 5.5 | 16 | 105 | 253 to 254.5
8 | Fc1ccc(Nc2ncnc3[nH]c(-c4ccc(CN5CCCCC5)cc4)cc23)cc1Cl [Example 6, (3-Chloro-4-fluoro-phenyl)-[6-(4-piperidin-1-ylmethyl-phenyl)-7H-pyrrolo[2,3-d]pyrimidin-4-yl]-amine] | 7 | 5 | 12.7 | 267 to 269
9 | Fc1ccc(Nc2ncnc3[nH]c(-c4ccc(CN5CCOCC5)cc4)cc23)cc1Cl [Example 7, (3-Chloro-4-fluoro-phenyl)-[6-(4-morpholin-4-ylmethyl-phenyl)-7H-pyrrolo[2,3-d]pyrimidin-4-yl]-amine] | 4 | 11 | 58 | 298 to 300
10 | CN1CCN(Cc2ccc(-c3cc4c(Nc5ccc(F)c(Cl)c5)ncnc4[nH]3)cc2)CC1 [Example 5, (3-Chloro-4-fluoro-phenyl)-{6-[4-(4-methyl-piperazin-1-ylmethyl)-phenyl]-7H-pyrrolo[2,3-d]pyrimidin-4-yl}-amine] | 3.1 | 6.7 | 6 | 264 to 266
11 | CCN(CC)Cc1ccc(-c2cc3c(N[C@H](C)c4ccccc4)ncnc3[nH]2)cc1 [Example 10, [6-(4-Diethylamino-methyl-phenyl)-7H-pyrrolo[2,3-d]pyrimidin-4-yl]-((R)-1-phenyl-ethyl)-amine] | – | 9 | 29.3 | 246 to 248
12 | C[C@@H](Nc1ncnc2[nH]c(-c3ccc(CN4CCOCC4)cc3)cc12)c1ccccc1 [Example 15, [6-(4-Morpholin-4-ylmethyl-phenyl)-7H-pyrrolo[2,3-d]pyrimidin-4-yl]-((R)-1-phenyl-ethyl)-amine] | 5 | 6.5 | 49.3 | 263 to 265
13 | CCN1CCN(Cc2ccc(-c3cc4c(N[C@H](C)c5ccccc5)ncnc4[nH]3)cc2)CC1 [Example 11, {6-[4-(4-Ethyl-piperazin-1-ylmethyl)-phenyl]-7H-pyrrolo[2,3-d]pyrimidin-4-yl}-((R)-1-phenyl-ethyl)-amine] | – | 5 | 49.7 | –
14 | C[C@@H](Nc1ncnc2[nH]c(-c3ccc(CN4CCCCC4)cc3)cc12)c1ccccc1 [Example 14, ((R)-1-Phenyl-ethyl)-[6-(4-piperidin-1-ylmethyl-phenyl)-7H-pyrrolo[2,3-d]pyrimidin-4-yl]-amine] | 6.3 | 8.5 | 92.7 | 246 to 248
15 | CN(C)Cc1ccc(-c2cc3c(Nc4ccc(=O)[nH]c4)ncnc3[nH]2)cc1 [Example 116, 5-[6-(4-Dimethylaminomethyl-phenyl)-7H-pyrrolo[2,3-d]pyrimidin-4-ylamino]-1H-pyridin-2-one] | 39 | 15.5 | 15.5 | –
16 | C[C@@H](Nc1ncnc2[nH]c(-c3ccc(CN(C)C)cc3)cc12)c1ccccc1 [Example 13, [6-(4-Dimethylamino-methyl-phenyl)-7H-pyrrolo[2,3-d]pyrimidin-4-yl]-((R)-1-phenyl-ethyl)-amine] | 6 | 5 | 88 | –
17 | Cc1cccc(CNc2ncnc3[nH]c(-c4ccc(CN(C)C)cc4)cc23)c1 [107f^] | 2.5 | 45 | 19 | –
18 | CN1CCN(CC(=O)NCc2ccc(-c3cc4c(Nc5ccc(OCc6ccccc6)cc5)ncnc4[nH]3)cc2)CC1 [Example 52, N-{4-[4-(4-Benzyloxy-phenylamino)-7H-pyrrolo[2,3-d]pyrimidin-6-yl]-benzyl}-2-(4-methyl-piperazin-1-yl)-acetamide] | 15.7 | 14 | 125 | 232 to 234
19 | Fc1ccc(Nc2ncnc3[nH]c(-c4ccc(CN5CCCC5)cc4)cc23)cc1Cl [Example 4, (3-Chloro-4-fluoro-phenyl)-[6-(4-pyrrolidin-1-ylmethyl-phenyl)-7H-pyrrolo[2,3-d]pyrimidin-4-yl]-amine] | 3.1 | 7.2 | 9.3 | 268 to 270
20 | O=C(CN1CCOCC1)NCc1ccc(-c2cc3c(Nc4ccc(F)c(Cl)c4)ncnc3[nH]2)cc1 [Example 48, N-{4-[4-(3-Chloro-4-fluoro-phenylamino)-7H-pyrrolo[2,3-d]pyrimidin-6-yl]-benzyl}-2-morpholin-4-yl-acetamide] | 5.7 | 7.5 | 58 | 272 to 275
21 | CCN1CCN(Cc2ccc(-c3cc4c(Nc5ccc(F)c(Cl)c5)ncnc4[nH]3)cc2)CC1 [Example 3, (3-Chloro-4-fluoro-phenyl)-{6-[4-(4-ethyl-piperazin-1-ylmethyl)-phenyl]-7H-pyrrolo[2,3-d]pyrimidin-4-yl}-amine] | 3.1 | 8 | 10.7 | 266 to 268
22 | CCN(CC)Cc1ccc(-c2cc3c(Nc4ccc(OCc5ccccc5)cc4)ncnc3[nH]2)cc1 [Example 21, (4-Benzyloxy-phenyl)-[6-(4-diethylaminomethyl-phenyl)-7H-pyrrolo[2,3-d]pyrimidin-4-yl]-amine] | – | – | – | 271 to 273
23 | COc1cccc(CNc2ncnc3[nH]c(-c4ccc(CN5CCOCC5)cc4)cc23)c1 [Example 107a, (3-Methoxy-benzyl)-[6-(4-morpholin-4-ylmethyl-phenyl)-7H-pyrrolo[2,3-d]pyrimidin-4-yl]-amine] | – | – | – | 263 to 265
24 | c1ccc(COc2ccc(Nc3ncnc4[nH]c(-c5ccc(CN6CCCCC6)cc5)cc34)cc2)cc1 [Example 19, (4-Benzyloxy-phenyl)-[6-(4-piperidin-1-ylmethyl-phenyl)-7H-pyrrolo[2,3-d]pyrimidin-4-yl]-amine] | – | – | – | 256 to 258
25 | Fc1ccc(Nc2ncnc3[nH]c(-c4ccc(CNCCN5CCOCC5)cc4)cc23)cc1Cl [Example 8b, (3-Chloro-4-fluoro-phenyl)-(6-{4-[(2-morpholin-4-yl-ethyl-amino)-methyl]-phenyl}-7H-pyrrolo[2,3-d]pyrimidin-4-yl)-amine] | – | – | – | 224 to 226
